Assay results published in the NIST ThermoML archive (doi:10.1016/j.jct.2006.08.003).
Numbers after ± are expanded uncertainties.

Experiment: mn = molality of the nth substance listed, in mol/kg
Settings: 298.15 K, 101 kPa, Liquid; for speed of sound: Sing-around technique in a fixed-path interferometer

N[C@@H](CO)C(=O)O [L-serine] + O
Settings | mass density [kg/m3] | speed of sound [m/s]
m1 = 0.1015 | 1001.52 ± 0.24 | 1503 ± 1.3
m1 = 0.1508 | 1003.67 ± 0.25 | 1506.1 ± 1.3
m1 = 0.1958 | 1005.62 ± 0.25 | 1509 ± 1.3
m1 = 0.2564 | 1008.21 ± 0.26 | 1512.7 ± 1.3
m1 = 0.2888 | 1009.59 ± 0.26 | 1514.9 ± 1.3
m1 = 0.3655 | 1012.8 ± 0.27 | 1519.8 ± 1.3

C[C@@H](O)[C@H](N)C(=O)O [L-threonine] + O
Settings | mass density [kg/m3] | speed of sound [m/s]
m1 = 0.04618 | 998.993 ± 0.44 | –
m1 = 0.1013 | 1001.29 ± 0.44 | 1504.7 ± 1.5
m1 = 0.1405 | 1002.91 ± 0.45 | 1507.7 ± 1.5
m1 = 0.1798 | 1004.51 ± 0.45 | 1510.9 ± 1.5
m1 = 0.2227 | 1006.26 ± 0.46 | 1514.3 ± 1.5
m1 = 0.2524 | 1007.45 ± 0.46 | 1516.6 ± 1.5
m1 = 0.2755 | 1008.38 ± 0.47 | 1518.7 ± 1.5

CC(=O)[O-].CC(=O)[O-].[Mg+2] [magnesium acetate] + O
Settings | speed of sound [m/s]
m1 = 0.5 | 1571.7 ± 1.4
m1 = 1 | 1630.4 ± 1.4
m1 = 1.5 | 1680.2 ± 1.4
m1 = 2 | 1724.4 ± 1.4

CC(=O)[O-].[Na+] [sodium ethanoate] + O
Settings | speed of sound [m/s]
m1 = 0.5 | 1547.6 ± 1.3
m1 = 1 | 1590.4 ± 1.3
m1 = 2 | 1658 ± 1.4
m1 = 4 | 1761.8 ± 1.4
